Reference: patent US8309545B2, “Benzofuran potassium channel blockers and uses thereof” (Bionomics Limited, priority 2006, dated 2012)

Molecular target: T1, human Kv1.3 ion channel (Homo sapiens, UniProt P22001)
T1 construct: Human Jurkat cells (which endogenously express hKv1.3) were used in place of rat L929 cells; endogenous in cells; host or cells: Human Jurkat cells
Test: Inhibition of Kv1.3 currents, planar patch clamp in Jurkat cells
Assay type: cell-based
Conditions: Human Jurkat cells (endogenous hKv1.3), averaged dose response data from 3 or more cells
Procedure: Potency of compounds to inhibit the human Kv1.3 ion channel were determined as follows:
EC50 values for inhibition of Kv1.3 currents were determined by the method according to Schmitz et al (2005) Molecular Pharmacology 68, 1254-1270 with the following differences: • 1. Human Jurkat cells (which endogenously express hKv1.3) were used in place of rat L929 cells. • 2. All electrophysiology was performed using planar patch clamp (Port-A-Patch, Nanion Technologies Gmbh, Munich) in contrast to conventional patch clamp. • 3. EC50 values shown were determined from averaged dose response data obtained from 3 or more cells.

T1 sequence (P22001 whole entry): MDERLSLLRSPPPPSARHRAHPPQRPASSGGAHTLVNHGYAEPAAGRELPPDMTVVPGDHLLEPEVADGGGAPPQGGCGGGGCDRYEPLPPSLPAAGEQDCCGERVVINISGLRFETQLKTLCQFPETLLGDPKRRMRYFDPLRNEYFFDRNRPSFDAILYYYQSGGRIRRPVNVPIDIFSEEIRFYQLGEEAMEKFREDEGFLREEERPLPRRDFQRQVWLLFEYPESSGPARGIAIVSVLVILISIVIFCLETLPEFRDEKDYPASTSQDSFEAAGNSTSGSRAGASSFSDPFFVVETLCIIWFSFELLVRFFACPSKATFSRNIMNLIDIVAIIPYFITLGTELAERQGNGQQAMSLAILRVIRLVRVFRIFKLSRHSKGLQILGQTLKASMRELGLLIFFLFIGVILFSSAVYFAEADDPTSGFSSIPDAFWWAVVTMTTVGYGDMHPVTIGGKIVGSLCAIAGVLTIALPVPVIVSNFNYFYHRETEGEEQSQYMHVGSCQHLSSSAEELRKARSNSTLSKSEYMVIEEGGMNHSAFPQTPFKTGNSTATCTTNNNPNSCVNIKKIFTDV

| Compound | EC50 [nM] |
| --- | --- |
| CC(=O)c1c(OCCN2CCOCC2)c(OCCC(C)(C)c2ccccc2)c2occc2c1C (racemic) [Example 46b, rac-1-[4-Methyl-7-(3-methyl-3-phenyl-butoxy)-6-(2-morpholin-4-yl-ethoxy)-benzofuran-5-yl]ethanone] | 198 |
| Cc1cc(=O)c2c(C)c3ccoc3c(OC[C@H]3C[C@@H]3c3ccccc3)c2o1 (racemic) [Example 58a, rac-4,7-Dimethyl-9-(1S,2S-2-phenyl-cyclopropylmethoxy)-furo[3,2-g]chromen-5-one] | 165 |
| CC(=O)c1c(O)c(OC[C@H]2C[C@@H]2c2ccccc2)c2occc2c1C (racemic) [Example 58b, rac-1-[6-Hydroxy-4-methyl-7-(1S,2S-2-phenyl-cyclopropylmethoxy)-benzofuran-5-yl]-ethanone] | 512 |
| Cc1cc(=O)c2c(C)c3ccoc3c(OC[C@H]3C[C@H]3c3ccccc3)c2o1 (racemic) [Example 59a, rac-4,7-Dimethyl-9-(1S,2R-2-phenyl-cyclopropylmethoxy)-furo[3,2-g]chromen-5-one] | 215 |
| COc1c2occc2c(C)c2c(=O)cc(C)oc12 [4 a)] | 790 |
| COc1c(OCCCc2ccccc2)c(C(C)=O)c(C)c2ccoc12 [4 c)] | 225 |
| COc1c(C(C)=O)c(OCCOc2ccccc2)c(OC)c2occc12 [5 b)] | 880 |
| COc1c(C(C)=O)c(OCCCOc2ccccc2)c(OC)c2occc12 [6 b)] | 720 |
| COc1c(C(C)=O)c(OCCCc2ccccc2)c(CN(C)C)c2occc12 [13 b)] | 480 |
| COc1c(C(C)=O)c(OCCCCOc2ccccc2)c(OCCN2CCOCC2)c2occc12 [14 c)] | 910 |
| COc1c(C(C)=O)c(OCCN(C)C)c(OCCCc2ccccc2)c2occc12 [15 b)] | 160 |
| Cc1cc(=O)c2c(C)c3ccoc3c(OCCCc3ccccc3)c2o1 [18 a)] | 114 |
| CC(=O)c1c(OCCN(C)C)c(OCCCc2ccccc2)c2occc2c1C [18 c)] | 420 |
| CC(=O)c1c(OCCn2ccnc2)c(OCCCc2ccccc2)c2occc2c1C [20 b)] | 68 |
| CC(=O)c1c(OCCn2nnc(N)n2)c(OCCCc2ccccc2)c2occc2c1C [21 a)] | 23 |
| CC(=O)c1c(OCCn2nnnc2N)c(OCCCc2ccccc2)c2occc2c1C [21 b)] | 160 |
| CC(=O)c1cc2ccoc2c(OCCCc2ccccc2)c1OCCN1CCOCC1 [22 c)] | 610 |
| CC(=O)c1c(OCCN2CCOCC2)cc2occc2c1OCCCCOc1ccccc1 [23 d)] | 174 |
| CC(=O)c1c(OCCCCN2CCOCC2)c(OCCCc2ccccc2)c2occc2c1C [28 b)] | 640 |
| COc1c(C(C)=O)c(OCCCc2ccccc2)c(OC)c2occc12 [Example 1, 5-Acetyl-4,7-dimethoxy-6-(3-(phenyl)propoxy)benzofuran] | 290 |
| COc1c(C(C)=O)c(OCCCCOc2ccccc2)c(OC)c2occc12 [Example 2] | 420 |

| Compound | EC50 [nM] |
| --- | --- |
| CC(=O)c1cc2ccoc2cc1OCCCc1ccccc1 [Example 3, 5-Acetyl-6-(3-phenylpropoxy)benzofuran] | 184 |
| COc1c(C(C)=O)c(OCCSc2ccccc2)c(OC)c2occc12 [Example 7, 5-Acetyl-4,7-dimethoxy-6-(2-(thiophenoxy)ethoxy)benzofuran] | 680 |
| COc1c(C(C)=O)c(OCCCSc2ccccc2)c(OC)c2occc12 [Example 8, 5-Acetyl-4,7-dimethoxy-6-(3-(phenylthio)propoxy)benzofuran] | 750 |
| COc1c(C(C)=O)c(OCCS(=O)(=O)c2ccccc2)c(OC)c2occc12 [Example 9, 5-Acetyl-4,7-dimethoxy-6-(2-(benzenesulfonyl)ethoxy)benzofuran] | 2420 |
| COc1c(C(C)=O)c(OCCCS(=O)(=O)c2ccccc2)c(OC)c2occc12 [Example 10, 5-Acetyl-4,7-dimethoxy-6-(3-(benzenesulfonyl)propoxy)benzofuran] | 1510 |
| COc1c(C(C)=O)c(OCCNc2ccccc2)c(OC)c2occc12 [Example 11, 5-Acetyl-4,7-dimethoxy-6-(2-(phenylamino)ethoxy)benzofuran] | 980 |
| COc1c(C(C)=O)c(OCCCNc2ccccc2)c(OC)c2occc12 [Example 12, 5-Acetyl-4,7-dimethoxy-6-(3-(phenylamino)propoxy)benzofuran] | 690 |
| COc1c(C(C)=O)c(OCCN2CCOCC2)c(OCCCc2ccccc2)c2occc12 [Example 16, 5-Acetyl-6-(2-morpholinoethoxy)-4-methoxy-7-(3-phenylpropoxy)benzofuran] | 110 |
| COc1c(C(C)=O)c(OCCn2ccnc2)c(OCCCc2ccccc2)c2occc12 [Example 17, 5-Acetyl-6-(2-imidazol-1-ylethoxy)-4-methoxy-7-(3-phenylpropoxy)benzofuran] | 81 |
| CC(=O)c1c(OCCN2CCOCC2)c(OCCCc2ccccc2)c2occc2c1C [Example 19, 5-Acetyl-6-(2-morpholinoethoxy)-4-methyl-7-(3-phenylpropoxy)benzofuran] | 51 |
| CCOC(=O)CC(=O)c1c(OCCN2CCOCC2)cc2occc2c1OCCCCOc1ccccc1 [Example 24, 3-[6-(2-Morpholin-4-ylethoxy)-4-(4-phenoxybutoxy)benzofuran-5-yl]-3-oxo-propionic acid ethyl ester] | 590 |
| CC(=O)c1c(OCCN(C)C)cc2occc2c1OCCCCOc1ccccc1 [Example 25, 5-Acetyl-6-(2-dimethylamino-ethoxy)-4-(4-phenoxybutoxy)benzofuran] | 600 |
| CC(=O)c1c(OCCN2CCN(C)CC2)c(OCCCc2ccccc2)c2occc2c1C [Example 26] | 140 |
| CC(=O)c1c(OCCCn2ccnc2)c(OCCCc2ccccc2)c2occc2c1C [Example 29, 5-Acetyl-6-(3-imidazol-1-yl-propoxy)-4-methyl-7-(3-phenylpropoxy)-benzofuran] | 136 |
| CC(=O)c1c(OCCCCn2ccnc2)c(OCCCc2ccccc2)c2occc2c1C [Example 30, 5-Acetyl-6-(4-imidazol-1-yl-butoxy)-4-methyl-7-(3-phenylpropoxy)-benzofuran] | 120 |
| CC(=O)c1c(OCCOc2cnccn2)c(OCCCc2ccccc2)c2occc2c1C [Example 31b, 1-{4-Methyl-7-(3-phenyl-propoxy)-6-[2-(pyrazin-2-yloxy)-ethoxy]-benzofuran-5-yl}-ethanone] | 81 |
| CC(=O)c1c(OCCNC2CCCC2)c(OCCCc2ccccc2)c2occc2c1C [Example 32, 1-[6-(2-Cyclopentylamino-ethoxy)-4-methyl-7-(3-phenyl-propoxy)-benzofuran-5-yl]-ethanone] | 49 |
| CC(=O)c1c(OCCN2CCCCC2)c(OCCCc2ccccc2)c2occc2c1C [Example 33, 1-[4-Methyl-7-(3-phenyl-propoxy)-6-(2-piperidin-1-yl-ethoxy)-benzofuran-5-yl]-ethanone] | 343 |
| CC(=O)c1c(OCCN2CCCC2)c(OCCCc2ccccc2)c2occc2c1C [Example 34, 1-[4-Methyl-7-(3-phenyl-propoxy)-6-(2-pyrrolidin-1-yl-ethoxy)-benzofuran-5-yl]-ethanone] | 223 |
| CC(=O)c1c(OCCn2nccn2)c(OCCCc2ccccc2)c2occc2c1C [Example 35, 1-[4-Methyl-7-(3-phenyl-propoxy)-6-(2-[1,2,3]triazol-2-yl-ethoxy)-benzofuran-5-yl]ethanone] | 100 |
